Assay results taken from patent publication US20240059691A1 (KALVISTA PHARMACEUTICALS LIMITED, priority 2020, published 2024).

Legend:
[1] = biological target: Human Factor XIIa (Homo sapiens (Human), UniProt P00748); assay: Determination of FXIIa inhibition (fluorogenic substrate H-DPro-Phe-Arg-AFC, IC50 assay); format: biochemical; conditions: substrate H-DPro-Phe-Arg-AFC at Km, 25° C.; class scale A-G
Procedure, shortened: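 Human FXIIa incubated at 25° C with fluorogenic substrate H-DPro-Phe-Arg-AFC at its Km concentration and varying compound concentrations. Fluorescence release monitored over 5 min at 25° C; linear rate expressed as % of uninhibited activity to derive IC50.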

[2] = biological target: Plasma Kallikrein (Homo sapiens (Human), UniProt P03952); assay: Determination of related protease inhibition: Plasma Kallikrein (fluorogenic substrate at Km); format: biochemical; conditions: 25° C., read-out: IC50 (human PKal)
Procedure, shortened: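 Human protease + fluorogenic substrate (at Km) + test cpd, varied concns; fluorescence kinetic read 5 min, 25 °C. Linear slope → % activity vs uninhibited control; IC50 at 50% inhibition.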

Sequence of Human Factor XIIa (P00748 373-615): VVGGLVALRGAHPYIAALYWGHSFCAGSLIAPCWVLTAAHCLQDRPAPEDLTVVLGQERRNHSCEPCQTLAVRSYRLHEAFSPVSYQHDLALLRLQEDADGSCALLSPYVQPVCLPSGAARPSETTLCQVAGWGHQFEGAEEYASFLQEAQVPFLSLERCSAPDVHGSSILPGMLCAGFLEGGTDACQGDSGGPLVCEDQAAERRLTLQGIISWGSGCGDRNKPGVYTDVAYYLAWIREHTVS
Sequence of Plasma Kallikrein (P03952 391-638): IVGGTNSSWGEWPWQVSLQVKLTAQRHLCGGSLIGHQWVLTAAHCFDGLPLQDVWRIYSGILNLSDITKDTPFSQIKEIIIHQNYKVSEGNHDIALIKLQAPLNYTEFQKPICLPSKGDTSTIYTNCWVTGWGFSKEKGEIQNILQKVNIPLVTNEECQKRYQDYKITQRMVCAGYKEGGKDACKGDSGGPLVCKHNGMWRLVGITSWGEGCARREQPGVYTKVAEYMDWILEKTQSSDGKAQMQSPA
Sequence of Plasma Kallikrein (P03952 20-390 partner): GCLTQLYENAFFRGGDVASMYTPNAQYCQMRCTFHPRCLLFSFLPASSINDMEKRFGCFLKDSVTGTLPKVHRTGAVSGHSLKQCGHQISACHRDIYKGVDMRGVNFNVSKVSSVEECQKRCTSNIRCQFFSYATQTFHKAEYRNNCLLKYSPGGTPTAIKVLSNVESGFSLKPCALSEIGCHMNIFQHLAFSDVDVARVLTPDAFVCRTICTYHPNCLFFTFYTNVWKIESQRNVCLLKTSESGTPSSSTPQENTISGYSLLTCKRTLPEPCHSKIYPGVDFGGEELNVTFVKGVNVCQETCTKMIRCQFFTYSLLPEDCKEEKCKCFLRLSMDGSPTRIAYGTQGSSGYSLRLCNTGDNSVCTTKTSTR

Row | SMILES | IC50 [1] | IC50 [2]
1 | CN1CCC(Oc2ccc(CNc3ccc4ccnc(N)c4c3)cc2)CC1 [Example 1003, N7-(4-((1-methylpiperidin-4-yl)oxy)benzyl)isoquinoline-1,7-diamine] | 3 to 10 µM | 10 to 40 µM
2 | Cc1cnc2[nH]ccc2c1NCc1ccc(NCC2CCN(C)CC2)nc1 [Example 1205, 5-methyl-N-((6-(((1-methylpiperidin-4-yl)methyl)amino)pyridin-3-yl)methyl)-1H-pyrrolo[2,3-b]pyridin-4-amine] | 10 to 40 µM | > 100 µM
3 | FC(F)(F)c1nnc2n1CCN(c1ccc(CNc3ccc4cnccc4c3)cn1)C2 [Example 1283, N-((6-(3-(trifluoromethyl)-5,6-dihydro-[1,2,4]triazolo[4,3-a]pyrazin-7(8H)-yl)pyridin-3-yl)methyl)isoquinolin-6-amine] | 3 to 10 µM | > 40 µM
4 | CN1CCC(COc2cc(CNc3ccc4cnccc4c3F)ccn2)CC1 [Example 4466, 5-fluoro-N-((2-((1-methylpiperidin-4-yl)methoxy)pyridin-4-yl)methyl)isoquinolin-6-amine] | 3 to 10 µM | > 100 µM
5 | CC(C)N1CCC(CN(CCCO)C(=O)c2cccc(CNc3cccc4c(N)nccc34)c2)CC1 [Example 5441, 3-(((1-aminoisoquinolin-5-yl)amino)methyl)-N-(3-hydroxypropyl)-N-((1-isopropylpiperidin-4-yl)methyl)benzamide] | 3 to 10 µM | > 40 µM
6 | Nc1ncc(Cl)c2cc(NCc3ccnc(NCCC(=O)N4CCCC4)c3)ccc12 [Example 4428, 3-[(4-{[(1-amino-4-chloroisoquinolin-6-yl)amino]methyl}pyridin-2-yl)amino]-1-(pyrrolidin-1-yl)propan-1-one] | 1 to 3 µM | > 4 µM
7 | Nc1ncc(Cl)c2cc(NCc3ccnc(OCc4ccn5ccnc5c4)c3)ccc12 [Example 4433, 4-chloro-6-N-[(2-{imidazo[1,2-a]pyridin-7-ylmethoxy}pyridin-4-yl)methyl]isoquinoline-1,6-diamine] | 1 to 3 µM | > 40 µM
8 | Nc1ncc(Cl)c2cc(NCc3cnc(NCCC(=O)N4CCCC4)nc3)ccc12 [Example 1040, 3-[(5-{[(1-amino-4-chloroisoquinolin-6-yl)amino]methyl}pyrimidin-2-yl)amino]-1-(pyrrolidin-1-yl)propan-1-one] | 10 to 40 µM | > 40 µM
9 | CN1CCC(CNc2ccc(CNc3cc(C(F)(F)F)cc4[nH]c(Cl)cc34)cn2)CC1 [Example 1262, 2-chloro-N-((6-(((1-methylpiperidin-4-yl)methyl)amino)pyridin-3-yl)methyl)-6-(trifluoromethyl)-1H-indol-4-amine] | 1 to 3 µM | 3 to 10 µM
10 | Nc1ncc(Cl)c2cc(NCc3ccc(NCc4nccn4C(F)F)nc3)ccc12 [Example 1185] | 10 to 40 µM | > 40 µM
11 | Cc1cc(NCc2ccc(NCC3CCN(C)CC3)nc2)c2cc[nH]c2n1 [Example 1246, 6-methyl-N-((6-(((1-methylpiperidin-4-yl)methyl)amino)pyridin-3-yl)methyl)-1H-pyrrolo[2,3-b]pyridin-4-amine] | 3 to 10 µM | > 40 µM
12 | COc1cc(NCc2ccc(NCC3CCN(C)CC3)nc2)cc2ccncc12 [Example 1103, 8-methoxy-N-((6-(((1-methylpiperidin-4-yl)methyl)amino)pyridin-3-yl)methyl)isoquinolin-6-amine] | 10 to 40 µM | 10 to 40 µM
13 | COC(=O)c1c[nH]c2nccc(NCc3ccc(NCC4CCN(C)CC4)nc3)c12 [Example 1248, methyl 4-(((6-(((1-methylpiperidin-4-yl)methyl)amino)pyridin-3-yl)methyl)amino)-1H-pyrrolo[2,3-b]pyridine-3-carboxylate] | 10 to 40 µM | > 20 µM
14 | Nc1ncc(Cl)c2cc(NCc3cnc(OCC4CCn5ccnc5C4)nc3)ccc12 (stereo not shown) [Example 1052, 4-Chloro-N6-[[2-(5,6,7,8-tetrahydroimidazo[1,2-a]pyridin-7-ylmethoxy)pyrimidin-5-yl]methyl]isoquinoline-1,6-diamine] | 0.3 to 1 µM | > 40 µM
15 | Cc1c[nH]c2nccc(NCc3ccc(NCC4CCN(C)CC4)nc3)c12 [Example 1226, 3-methyl-N-((6-(((1-methylpiperidin-4-yl)methyl)amino)pyridin-3-yl)methyl)-1H-pyrrolo[2,3-b]pyridin-4-amine] | 3 to 10 µM | > 100 µM
16 | Nc1ncc(Cl)c2cc(NCc3cnc(NCC4CCn5ccnc5C4)nc3)ccc12 (stereo not shown) [Example 1043, 4-chloro-6-N-{[2-({5H,6H,7H,8H-imidazo[1,2-a]pyridin-7-ylmethyl}amino)pyrimidin-5-yl]methyl}isoquinoline-1,6-diamine] | 0.3 to 1 µM | 3 to 10 µM

The remaining lines, values ahead:

Row | IC50 [1] | IC50 [2] | SMILES
17 | 3 to 10 µM | > 40 µM | Nc1nccc2c(NCc3ccc(N4CCC(CC(F)F)C4)nc3)cccc12 (stereo not shown) [Example 1265, N5-((6-(3-(2,2-difluoroethyl)pyrrolidin-1-yl)pyridin-3-yl)methyl)isoquinoline-1,5-diamine]
18 | 0.3 to 1 µM | > 40 µM | Nc1nccc2c(CCc3ccnc(OCC4CCn5ccnc5C4)c3)cccc12 (stereo not shown) [Example 4452, 5-(2-(2-((5,6,7,8-tetrahydroimidazo[1,2-a]pyridin-7-yl)methoxy)pyridin-4-yl)ethyl)isoquinolin-1-amine]
19 | 3 to 10 µM | > 40 µM | CN1CCC(COc2cc(CNc3cccc4c(N)ncc(F)c34)ccn2)CC1 [Example 4461, 4-fluoro-N5-((2-((1-methylpiperidin-4-yl)methoxy)pyridin-4-yl)methyl)isoquinoline-1,5-diamine]
20 | 0.1 to 0.3 µM | 10 to 40 µM | Nc1ncc(Cl)c2cc(NCc3ccnc(OCC4CCn5ccnc5C4)c3)ccc12 (single isomer, unassigned) [Example 4439, (R*)-4-chloro-N6-((2-((5,6,7,8-tetrahydroimidazo[1,2-a]pyridin-7-yl)methoxy)pyridin-4-yl)methyl)isoquinoline-1,6-diamine]
21 | 1 to 3 µM | > 40 µM | Nc1ncc(Cl)c2cc(NCc3ccnc(OC4CCn5ccnc5C4)c3)ccc12 (stereo not shown) [Example 4432, 4-chloro-6-N-[(2-{5H,6H,7H,8H-imidazo[1,2-a]pyridin-7-yloxy}pyridin-4-yl)methyl]isoquinoline-1,6-diamine]
22 | 3 to 10 µM | > 40 µM | Nc1ncc(Cl)c2cc(NCc3ccc(N4CCn5ncc(O)c5C4)nc3)ccc12 [Example 1267, 5-(5-(((1-amino-4-chloroisoquinolin-6-yl)amino)methyl)pyridin-2-yl)-4,5,6,7-tetrahydropyrazolo[1,5-a]pyrazin-3-ol]
23 | 1 to 3 µM | 3 to 10 µM | Nc1nccc2cc(NCc3ccnc(OCC4CCn5ccnc5C4)c3)ncc12 (stereo not shown) [Example 4429, N6-[[2-(5,6,7,8-tetrahydroimidazo[1,2-a]pyridin-7-ylmethoxy)-4-pyridyl]methyl]-2,7-naphthyridine-1,6-diamine]
24 | 10 to 40 µM | 10 to 40 µM | Cc1n[nH]c2c1CCC2Nc1ccc(CNc2cccc3c(N)nccc23)cn1 (stereo not shown) [Example 1119, N5-((6-((3-methyl-1,4,5,6-tetrahydrocyclopenta[c]pyrazol-6-yl)amino)pyridin-3-yl)methyl)isoquinoline-1,5-diamine]
25 | 10 to 40 µM | > 40 µM | Nc1ncc(Cl)c2cc(NCc3ccc(N4CC5(CC(O)c6nccn65)C4)nc3)ccc12 (stereo not shown) [Example 1270, 1-(5-(((1-amino-4-chloroisoquinolin-6-yl)amino)methyl)pyridin-2-yl)-6′,7′-dihydrospiro[azetidine-3,5′-pyrrolo[1,2-a]imidazol]-7′-ol]
26 | 0.01 to 0.1 µM | > 4 µM | Nc1nccc2c(NCc3ccnc(OCC4CCn5ccnc5C4)c3)cccc12 (single isomer, unassigned) [Example 4430, (S*)-N5-((2-((5,6,7,8-tetrahydroimidazo[1,2-a]pyridin-7-yl)methoxy)pyridin-4-yl)methyl)isoquinoline-1,5-diamine]
27 | 3 to 10 µM | > 40 µM | Nc1ncc(Cl)c2cc(NCc3ccc(N4CCn5ccnc5C4)nc3)ccc12 [Example 1129, 4-chloro-6-N-[(6-{5H,6H,8H-imidazo[1,2-a]pyrazin-7-yl}pyridin-3-yl)methyl]isoquinoline-1,6-diamine]
28 | 3 to 10 µM | > 40 µM | Nc1nccc2c(NCc3ccc(N4CC5(CC(O)c6nccn65)C4)cc3)cccc12 (stereo not shown) [Example 2253, 1-(4-(((1-aminoisoquinolin-5-yl)amino)methyl)phenyl)-6′,7′-dihydrospiro[azetidine-3,5′-pyrrolo[1,2-a]imidazol]-7′-ol]
29 | 3 to 10 µM | > 40 µM | Nc1nccc2c(NCc3ccc(N4Cc5nccn5C(CO)C4)nc3)cccc12 (stereo not shown) [Example 1133, (7-(5-(((1-aminoisoquinolin-5-yl)amino)methyl)pyridin-2-yl)-5,6,7,8-tetrahydroimidazo[1,2-a]pyrazin-5-yl)methanol]
30 | 0.3 to 1 µM | 10 to 40 µM | Nc1nccc2c(NCc3ccc(N4CCc5nccn5CC4)nc3)cccc12 [Example 1271, N5-((6-(5,6,8,9-tetrahydro-7H-imidazo[1,2-d][1,4]diazepin-7-yl)pyridin-3-yl)methyl)isoquinoline-1,5-diamine]
31 | 0.3 to 1 µM | 3 to 10 µM | Cc1cn2c(n1)CC(COc1cc(CNc3cccc4c(N)nccc34)ccn1)CC2 (single isomer, unassigned) [Example 4447, (R*)-N5-((2-((2-methyl-5,6,7,8-tetrahydroimidazo[1,2-a]pyridin-7-yl)methoxy)pyridin-4-yl)methyl)isoquinoline-1,5-diamine]
32 | 1 to 3 µM | > 40 µM | Cn1c(COc2cc(CNc3cccc4c(N)nccc34)ccn2)nnc1C1CC1 [Example 4468, N5-((2-((5-cyclopropyl-4-methyl-4H-1,2,4-triazol-3-yl)methoxy)pyridin-4-yl)methyl)isoquinoline-1,5-diamine]
